Data from PubChem BioAssay AID256 (DTP/NCI, 2004).
Values joined by “and” are separate entries in the source; they are usually repeats but may differ in a detail not shown here. Equal entries are not always repeated. Toxic doses and inconclusive results are not listed. How the source made its calls: active means survival T/C of 150% or more; inactive means T/C below 125% in these data.

System: CD2F1 mice, L1210 leukemia ip, survival T/C
Experiment: NCI In Vivo Anticancer Drug Screen. Data for tumor model L1210 Leukemia (intraperitoneal) in CD2F1 (CDF1) mice
Details: higher = longer survival
Summary of the method: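 In this screen, transplantable tumors were grown in mice given either the compound or its vehicle. Results were expressed as the treated measurement relative to the control measurement.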

[1] = endpoint: mean survival time, dose: 50.0 mg/kg/injection, schedule: Q01DX001 (ip), vehicle: saline with Tween-80
[2] = endpoint: mean survival time, dose: 100.0 mg/kg/injection, schedule: Q01DX001 (ip), vehicle: saline with Tween-80
[3] = endpoint: mean survival time, dose: 200.0 mg/kg/injection, schedule: Q01DX001 (ip), vehicle: saline with Tween-80
[4] = endpoint: mean survival time, dose: 25.0 mg/kg/injection, schedule: Q01DX001 (ip), vehicle: saline with Tween-80
[5] = endpoint: mean survival time, dose: 100.0 mg/kg/injection, schedule: Q04DX003 (ip), vehicle: saline with Tween-80
[6] = endpoint: mean survival time, dose: 200.0 mg/kg/injection, schedule: Q04DX003 (ip), vehicle: saline with Tween-80
[7] = endpoint: mean survival time, dose: 400.0 mg/kg/injection, schedule: Q04DX003 (ip), vehicle: saline with Tween-80
[8] = endpoint: mean survival time, dose: 12.5 mg/kg/injection, schedule: Q01DX009 (ip), vehicle: saline with Tween-80
[9] = endpoint: mean survival time, dose: 25.0 mg/kg/injection, schedule: Q01DX009 (ip), vehicle: saline with Tween-80
[10] = endpoint: mean survival time, dose: 400.0 mg/kg/injection, schedule: Q01DX001 (ip), vehicle: saline with Tween-80
[11] = endpoint: mean survival time, dose: 12.5 mg/kg/injection, schedule: Q01DX005 (ip), vehicle: water
[12] = endpoint: mean survival time, dose: 25.0 mg/kg/injection, schedule: Q01DX005 (ip), vehicle: water
[13] = endpoint: mean survival time, dose: 50.0 mg/kg/injection, schedule: Q01DX005 (ip), vehicle: water
[14] = endpoint: mean survival time, dose: 100.0 mg/kg/injection, schedule: Q01DX005 (ip), vehicle: water
[15] = endpoint: mean survival time, dose: 50.0 mg/kg/injection, schedule: Q01DX009 (ip), vehicle: saline with Tween-80
[16] = endpoint: mean survival time, dose: 100.0 mg/kg/injection, schedule: Q01DX009 (ip), vehicle: saline with Tween-80

Measured: T/C

COC(=O)CCS(=O)(=O)CCC(=O)OC
inactive: endpoint: mean survival time, dose: 100.0 mg/kg/injection, schedule: Q04DX003 (ip), vehicle: Klucel (hydroxypropylcellulose) (HPC) 103 % of control | endpoint: mean survival time, dose: 200.0 mg/kg/injection, schedule: Q04DX003 (ip), vehicle: Klucel (hydroxypropylcellulose) (HPC) 100 % of control | endpoint: mean survival time, dose: 400.0 mg/kg/injection, schedule: Q04DX003 (ip), vehicle: Klucel (hydroxypropylcellulose) (HPC) 103 % of control

O=C(O)CS(=O)c1ccc(Cl)cc1 (stereo not drawn)
inactive: [1] 104 % of control | [2] 95 % of control | [3] 88 % of control

Oc1cc2ccc3c(c2cc1O)CCc1cn[nH]c1-3
inactive: [4] 104 % of control | [1] 111 % of control | [2] 92 % of control

CCCCNC(C)(C)C(=O)c1cccs1
inactive: endpoint: mean survival time, dose: 25.0 mg/kg/injection, schedule: Q01DX009 (ip), vehicle: saline 94 % of control | endpoint: mean survival time, dose: 50.0 mg/kg/injection, schedule: Q01DX009 (ip), vehicle: saline 98 % of control | endpoint: mean survival time, dose: 100.0 mg/kg/injection, schedule: Q01DX009 (ip), vehicle: saline 100 % of control

CC(=O)OCC1OC(n2nc(CBr)cc2C(N)=O)C(OC(C)=O)C(OC(C)=O)C1OC(C)=O (stereo not drawn)
inactive: endpoint: mean survival time, dose: 12.5 mg/kg/injection, schedule: Q01DX005 (ip), vehicle: distilled water + Tween-80 104 % of control | endpoint: mean survival time, dose: 25.0 mg/kg/injection, schedule: Q01DX005 (ip), vehicle: distilled water + Tween-80 96 % of control | endpoint: mean survival time, dose: 50.0 mg/kg/injection, schedule: Q01DX005 (ip), vehicle: distilled water + Tween-80 98 % of control | endpoint: mean survival time, dose: 100.0 mg/kg/injection, schedule: Q01DX005 (ip), vehicle: distilled water + Tween-80 92 % of control | endpoint: mean survival time, dose: 200.0 mg/kg/injection, schedule: Q01DX005 (ip), vehicle: distilled water + Tween-80 93 % of control

CC1OC(OC2C(O)C(CO)OC(OC3C(C(=O)O)OC(OC4CCC5(C)C(CCC6(C)C5CC=C5C7CC(C)(C)C(O)C(O)C7(CO)C(O)CC56C)C4(C)C)C(OC4OC(CO)C(O)C(O)C4O)C3O)C2O)C(O)C(O)C1O (stereo not drawn)
inactive: endpoint: mean survival time, dose: 50.0 mg/kg/injection, schedule: Q04DX002 (ip), vehicle: saline with Tween-80 98 % of control | endpoint: mean survival time, dose: 100.0 mg/kg/injection, schedule: Q04DX002 (ip), vehicle: saline with Tween-80 102 % of control | endpoint: mean survival time, dose: 200.0 mg/kg/injection, schedule: Q04DX002 (ip), vehicle: saline with Tween-80 107 % of control

COc1ccc(C2C(C(C)=O)=C(C)NC(C)=C2C(C)=O)cc1
inactive: [5] 88 % of control | [6] 87 % of control

CN1C(=O)c2ccccc2C1(c1ccccc1)c1ccccc1
inactive: [5] 92 % of control | [6] 103 % of control | [7] 102 % of control

CCC(=O)OC1(c2ccccc2)CCN(C/C=C/c2ccc(F)cc2)CC1
inactive: endpoint: mean survival time, dose: 6.25 mg/kg/injection, schedule: Q01DX009 (ip), vehicle: saline with Tween-80 98 % of control | [8] 98 % of control | [9] 110 % of control

CCOC(OCC)c1cc(-c2cnc(N)nc2N)cc(Cl)c1Cl
inactive: [2] 98 % of control | [3] 97 % of control | [10] 97 % of control

OC1C=C(c2ccccc2)C(c2ccccc2)C(c2ccccc2)C1 (stereo not drawn)
inactive: [2] 89 % of control | [10] 101 % of control

C/C(=N\Nc1ccc([N+](=O)[O-])cc1[N+](=O)[O-])C1CCCCC1
inactive: [5] 100 % of control | [6] 91 % of control | [7] 91 % of control

N=c1c2ccn(C3OC(CO)C(O)C3O)c2ncn1N (stereo not drawn)
inactive: [11] 115 % of control | [12] 110 % of control | [13] 115 % of control and 116 % of control | [14] 94 % of control

Fc1ccc(-c2ccc(F)cc2)cc1
inactive: [5] 101 % of control | [6] 98 % of control | [7] 98 % of control

Cc1noc2nccnc12
inactive: [15] 103 % of control | [16] 101 % of control | [5] 94 % of control

O=C(/C=C/c1ccccc1)NC1CC1
inactive: [2] 94 % of control | [3] 89 % of control | [10] 93 % of control

O=c1ccn(C2OC(CO)C(F)(CO)C2O)c(=O)[nH]1 (stereo not drawn)
inactive: [11] 103 % of control | [12] 109 % of control | [13] 97 % of control | [14] 94 % of control | endpoint: mean survival time, dose: 200.0 mg/kg/injection, schedule: Q01DX005 (ip), vehicle: water 105 % of control

CN1CC=C(c2ccccc2)CC1
inactive: endpoint: mean survival time, dose: 18.8 mg/kg/injection, schedule: Q04DX003 (ip), vehicle: saline 102 % of control | endpoint: mean survival time, dose: 37.5 mg/kg/injection, schedule: Q04DX003 (ip), vehicle: saline 104 % of control | endpoint: mean survival time, dose: 75.0 mg/kg/injection, schedule: Q01DX001 (ip), vehicle: saline 100 % of control

Cc1c2c(c(O)c3c(O)cccc13)C(=O)C1(O)C(O)=C(C(N)=O)C(=O)CC1C2 (stereo not drawn)
inactive: endpoint: mean survival time, dose: 75.0 mg/kg/injection, schedule: Q01DX001 (ip), vehicle: other 92 % of control | endpoint: mean survival time, dose: 150.0 mg/kg/injection, schedule: Q01DX001 (ip), vehicle: other 94 % of control | endpoint: mean survival time, dose: 300.0 mg/kg/injection, schedule: Q01DX001 (ip), vehicle: other 102 % of control

CCCCNC(=O)Nc1ccc(C(=O)OCCCC)cc1
inactive: [16] 87 % of control | [5] 101 % of control | endpoint: mean survival time, dose: 200.0 mg/kg/injection, schedule: Q01DX009 (ip), vehicle: saline with Tween-80 92 % of control | [6] 101 % of control | endpoint: mean survival time, dose: 400.0 mg/kg/injection, schedule: Q01DX009 (ip), vehicle: saline with Tween-80 92 % of control | [7] 100 % of control

O=[N+]([O-])c1ccc(Cn2cc[n+](Cc3ccc([N+](=O)[O-])cc3)c2)cc1
inactive: [8] 98 % of control | [4] 108 % of control | [9] 90 % of control | [1] 104 % of control | [15] 93 % of control | [2] 98 % of control

CC(=O)SC(Cc1ccccc1)(Cc1ccccc1)SC(C)=O
inactive: [5] 97 % of control | [6] 95 % of control | [7] 100 % of control

CS(=O)(=O)Nc1ccc(C(=O)CCN2CCCCCC2)cc1
inactive: endpoint: median survival time, dose: 25.0 mg/kg/injection, schedule: Q01DX009 (ip), vehicle: saline 98 % of control | endpoint: median survival time, dose: 50.0 mg/kg/injection, schedule: Q01DX009 (ip), vehicle: saline 101 % of control | endpoint: median survival time, dose: 100.0 mg/kg/injection, schedule: Q01DX009 (ip), vehicle: saline 98 % of control
